In general, aqueous solubility refers to the dissolved amount per volume that the medium holds. A higher aqueous solubility goes with much dissolved substance.

The values below come from patent US11799117B2, “Flow batteries incorporating a nitroxide compound within an aqueous electrolyte solution” (LOCKHEED MARTIN ENERGY, LLC, priority 2016, dated 2023).

Holding throughout (type): physicochemical
The nature of data set [1]: Aqueous solubility. An excerpt:
(§1) First, it has a reduction potential of approximately 0.6 V versus a saturated calomel electrode, which is desirably higher than that of iron hexacyanide coordination compounds (increase of 0.25 V).

Data set [2] in a line: Reduction potential versus a saturated calomel electrode.
Source text: as §1

Data set [3] can be described thus: Electrochemical kinetics by cyclic voltammetry. The settings on record: also in alkaline aqueous electrolyte solutions; substantially reversible = anodic/cathodic peak difference less than about 0.3 V.
Source text: The high positive half-cell reduction potentials can provide significant advantages when incorporated in flow batteries, particularly in comparison to the commonly used iron hexacyanide coordination compounds. The high positive reduction potential can allow improved open circuit potential, voltage efficiency and current efficiency values to be realized. In addition, the improved solubility of many nitroxide compounds compared to iron hexacyanide coordination compounds allows improved energy density values to be realized.
The nitroxide compound defined by Structure 12 has the chemical name [2,2,6,6-tetramethyl-4-(sulfooxy)piperidin-1-yl]oxidanyl (also referred to herein as TEMPOSO). Without being bound by any theory or mechanism, it is believed that the sulfate (sulfooxy) group can stabilize the nitroxide group when the six-membered ring is in its “boat”, configuration. […] Under alkaline aqueous solutions, the deprotonated anionic form of Structure 12 can be stabilized after oxidation of the radical through lone pair donation from the sulfooxy group to the resulting nitrogen-centered cation.
as §1

Data set [4] can be described thus: Conductivity of aqueous solution. The settings on record: 1 M aqueous solution, pH 11, absence of other electrolytes.
Source text: as §1

As for “[2,2,6,6-tetramethyl-4-(sulfooxy)piperidin-1-yl]oxidanyl [TEMPOSO]”, the aqueous solubility in data set [1] was not below 1800 mM. In addition, in data set [2], the “increase of reduction potential over iron hexacyanide coordination compounds” value worked out at 0.25 V and the reduction potential entry was “approximately 0.6 V”. Further, in data set [3], the electrochemical kinetics result is given as “substantially reversible”. In data set [4], the conductivity entry is given as “about 50 mS/cm”.
